Experimental data as given in patent US8003785B2 (Takeda Pharmaceutical Company Limited, priority 2008, dated 2011).

Biological target: T1, PLK1 (Homo sapiens, UniProt P53350)
T1 construct: Full-length, active GST-PLK1 is purified from Sf9 insect cells; made in house; host or cells: Sf9 insect cells
Assay: Biochemical Characterization Assay: HTRF kinase assay, GST-PLK1 phosphorylation of GST-p53
Conditions: GST-PLK1, GST-p53 substrate
Outline: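 Full-length active GST-PLK1 (Sf9, 3 ug/mL) phosphorylated full-length GST-p53 (E. coli) in Kinase Assay Buffer for 35 min at 37 °C. Stopped with EDTA; phospho-p53 detected by HTRF with anti-phospho-p53, Eu-anti-rabbit and APC-anti-GST antibodies.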

T1 sequence (P53350 whole entry): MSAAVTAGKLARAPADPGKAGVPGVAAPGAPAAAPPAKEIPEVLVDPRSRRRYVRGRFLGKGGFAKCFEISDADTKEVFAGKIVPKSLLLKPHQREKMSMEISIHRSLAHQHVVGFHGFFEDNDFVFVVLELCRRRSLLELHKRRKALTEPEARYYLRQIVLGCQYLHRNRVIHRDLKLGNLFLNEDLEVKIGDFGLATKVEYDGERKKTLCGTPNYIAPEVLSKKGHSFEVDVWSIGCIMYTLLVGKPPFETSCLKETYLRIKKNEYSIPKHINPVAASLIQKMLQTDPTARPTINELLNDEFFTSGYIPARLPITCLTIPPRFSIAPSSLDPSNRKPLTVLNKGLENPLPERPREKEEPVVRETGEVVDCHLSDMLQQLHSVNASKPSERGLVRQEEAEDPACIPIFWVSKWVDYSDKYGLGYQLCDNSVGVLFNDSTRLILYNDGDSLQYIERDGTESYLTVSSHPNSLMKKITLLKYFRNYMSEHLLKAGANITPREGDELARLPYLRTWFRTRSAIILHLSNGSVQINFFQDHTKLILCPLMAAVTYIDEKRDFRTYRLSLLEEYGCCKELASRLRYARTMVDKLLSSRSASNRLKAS

| Structure (SMILES) | IC50 (ATP) [µM] | IC50 [µM] |
| --- | --- | --- |
| COc1cc(C(=O)NCCN2CCOCC2)ccc1Nc1ncc2c(n1)N(C1CCCC1)CC(F)(F)C(=O)N2C [Example I-117, 4-(9-cyclopentyl-7,7-difluoro-5-methyl-6-oxo-6,7,8,9-tetrahydro-5H-pyrimido[4,5-b][1,4]diazepin-2-ylamino)-3-methoxy-N-(2-morpholin-4-yl-ethyl)-benzamide] | 0.001 to 0.05 |  |
| COc1cc(C(=O)NCCN2CCNCC2)ccc1Nc1ncc2c(n1)N(C1CCCC1)CC(F)(F)C(=O)N2C [Example I-49, 4-(9-cyclopentyl-7,7-difluoro-5-methyl-6-oxo-6,7,8,9-tetrahydro-5H-pyrimido[4,5-b][1,4]diazepin-2-ylamino)-3-methoxy-N-(2-piperazin-1-yl-ethyl)-benzamide] | 0.001 to 0.05 |  |
| COc1cc(C(=O)NC2CCOCC2)ccc1Nc1ncc2c(n1)N(CCc1cccs1)CC(F)(F)C(=O)N2C [Example I-274, 4-[7,7-difluoro-5-methyl-6-oxo-9-(2-thiophen-2-yl-ethyl)-6,7,8,9-tetrahydro-5H-pyrimido[4,5-b][1,4]diazepin-2-ylamino]-3-methoxy-N-(tetrahydro-pyran-4-yl)-benzamide] |  | 0.051 to 0.5 |
| COc1cc(C(=O)NCCC2CCCN2C)ccc1Nc1ncc2c(n1)N(C1CCCC1)CC(F)(F)C(=O)N2C (centres unmarked) [Example I-112, 4-(9-cyclopentyl-7,7-difluoro-5-methyl-6-oxo-6,7,8,9-tetrahydro-5H-pyrimido[4,5-b][1,4]diazepin-2-ylamino)-3-methoxy-N-[2-(1-methyl-pyrrolidin-2-yl)-ethyl]-benzamide] | 0.001 to 0.05 |  |
| CCCN1C(=O)C(F)(F)CN(C2CCCC2)c2nc(Nc3ccc(C(N)=O)cc3OC)ncc21 [Example I-163, 4-(9-cyclopentyl-7,7-difluoro-6-oxo-5-propyl-6,7,8,9-tetrahydro-5H-pyrimido[4,5-b][1,4]diazepin-2-ylamino)-3-methoxy-benzamide] |  | 0.5 to 5 |
| CCN1C(=O)C(F)(F)CN(C2CCCC2)c2nc(Nc3ccc(C(=O)NC)cc3OC)ncc21 [Example I-158, 4-(9-cyclopentyl-5-ethyl-7,7-difluoro-6-oxo-6,7,8,9-tetrahydro-5H-pyrimido[4,5-b][1,4]diazepin-2-ylamino)-3-methoxy-N-methyl-benzamide] | 0.5 to 5 |  |
| CCOCCNC(=O)c1ccc(Nc2ncc3c(n2)N(C2CCCC2)CC(F)(F)C(=O)N3C)c(OC)c1 [Example I-40, 4-(9-cyclopentyl-7,7-difluoro-5-methyl-6-oxo-6,7,8,9-tetrahydro-5H-pyrimido[4,5-b][1,4]diazepin-2-ylamino)-N-(2-ethoxy-ethyl)-3-methoxy-benzamide] | 0.001 to 0.05 |  |
| COc1cc(C(=O)NCCCN2CCCC2)ccc1Nc1ncc2c(n1)N(C1CCCC1)CC(F)(F)C(=O)N2C [Example I-80, 4-(9-cyclopentyl-7,7-difluoro-5-methyl-6-oxo-6,7,8,9-tetrahydro-5H-pyrimido[4,5-b][1,4]diazepin-2-ylamino)-3-methoxy-N-(3-pyrrolidin-1-yl-propyl)-benzamide] | 0.001 to 0.05 |  |
| CN1C(=O)C(F)(F)CN(C2CCCC2)c2nc(Nc3cc(F)c(C(=O)NC4CCN(C(=O)OC(C)(C)C)CC4)cc3F)ncc21 [Example I-239, 4-[4-(9-cyclopentyl-7,7-difluoro-5-methyl-6-oxo-6,7,8,9-tetrahydro-5H-pyrimido[4,5-b][1,4]diazepin-2-ylamino)-2,5-difluoro-benzoylamino]-piperidine-1-carboxylic acid tert-butyl ester] |  | 0.051 to 0.5 |
| COc1cc(C(=O)NC2CCN(C3CC3)CC2)ccc1Nc1ncc2c(n1)N(C1CCCC1)CC(F)(F)C(=O)N2C [Example I-66, 4-(9-cyclopentyl-7,7-difluoro-5-methyl-6-oxo-6,7,8,9-tetrahydro-5H-pyrimido[4,5-b][1,4]diazepin-2-ylamino)-N-(1-cyclopropyl-piperidin-4-yl)-3-methoxy-benzamide] | 0.001 to 0.05 |  |
| CN(C)CCNC(=O)c1ccc(Nc2ncc3c(n2)N(C2CCCC2)CC(F)(F)C(=O)N3C)c(F)c1 [Example I-226, 4-(9-cyclopentyl-7,7-difluoro-5-methyl-6-oxo-6,7,8,9-tetrahydro-5H-pyrimido[4,5-b][1,4]diazepin-2-ylamino)-N-(2-dimethylamino-ethyl)-3-fluoro-benzamide] |  | 0.001 to 0.05 |
| COc1cc(C(=O)NCCCN(C)C)c(F)cc1Nc1ncc2c(n1)N(C1CCCC1)CC(F)(F)C(=O)N2C [Example I-172, 4-(9-cyclopentyl-7,7-difluoro-5-methyl-6-oxo-6,7,8,9-tetra-hydro-5H-pyrimido[4,5-b][1,4]diazepin-2-ylamino)-N-(3-dimethylamino-propyl)-2-fluoro-5-methoxy-benzamide] |  | 0.001 to 0.05 |
| COc1cc(C(=O)NC2CCN(C(=O)OC(C)(C)C)CC2)ccc1Nc1ncc2c(n1)N(C1CCCC1)CC(F)(F)C(=O)N2C [Example I-71, 4-[4-(9-cyclopentyl-7,7-difluoro-5-methyl-6-oxo-6,7,8,9-tetrahydro-5H-pyrimido[4,5-b][1,4]diazepin-2-ylamino)-3-methoxy-benzoylamino]-piperidine-1-carboxylic acid tert-butyl ester] | 0.051 to 0.5 |  |
| CNC(=O)c1ccc(Nc2ncc3c(n2)N(C2CCCC2)CC(F)(F)C(=O)N3C)c(F)c1F [Example I-245] |  | 0.001 to 0.05 |
| COc1cc(C(=O)NC2CCOCC2)ccc1Nc1ncc2c(n1)N(C1CCC1)CC(F)(F)C(=O)N2C [Example I-7, 4-(9-cyclobutyl-7,7-difluoro-5-methyl-6-oxo-6,7,8,9-tetrahydro-5H-pyrimido[4,5-b][1,4]diazepin-2-ylamino)-3-methoxy-N-(tetrahydro-pyran-4-yl)-benzamide] | 0.001 to 0.05 |  |
| COc1cc(C(=O)NC2CC3CCC(C2)N3C)ccc1Nc1ncc2c(n1)N(C1CCCC1)CC(F)(F)C(=O)N2C (centres unmarked) [Example I-50, 4-(9-cyclopentyl-7,7-difluoro-5-methyl-6-oxo-6,7,8,9-tetrahydro-5H-pyrimido[4,5-b][1,4]diazepin-2-ylamino)-3-methoxy-N-(8-methyl-8-aza-bicyclo[3.2.1]oct-3-yl)-benzamide] | 0.001 to 0.05 |  |
| CN1CCC(NC(=O)c2ccc(Nc3ncc4c(n3)N(C3CCCCC3)CC(F)(F)C(=O)N4C)cc2)CC1 [Example I-262, 4-(9-cyclohexyl-7,7-difluoro-5-methyl-6-oxo-6,7,8,9-tetrahydro-5H-pyrimido[4,5-b][1,4]diazepin-2-ylamino)-N-(1-methyl-piperidin-4-yl)-benzamide] |  | 0.001 to 0.05 |
| CNC(=O)c1ccc(Nc2ncc3c(n2)N(C2CCCC2)CC(F)(F)C(=O)N3C)c(C(F)(F)F)c1 [Example I-210, 4-(9-cyclopentyl-7,7-difluoro-5-methyl-6-oxo-6,7,8,9-tetrahydro-5H-pyrimido[4,5-b][1,4]diazepin-2-ylamino)-N-methyl-3-trifluoromethyl-benzamide] |  | 0.051 to 0.5 |
| COc1cc(C(=O)NC2CCN(C)CC2)ccc1Nc1ncc2c(n1)N(C1CCCCC1)CC(F)(F)C(=O)N2C [Example I-247, 4-(9-cyclohexyl-7,7-difluoro-5-methyl-6-oxo-6,7,8,9-tetrahydro-5H-pyrimido[4,5-b][1,4]diazepin-2-ylamino)-3-methoxy-N-(1-methyl-piperidin-4-yl)-benzamide] |  | 0.001 to 0.05 |
| COc1cc(C(=O)NC2CCN(C)CC2)ccc1Nc1ncc2c(n1)N(CCCc1ccccc1)CC(F)(F)C(=O)N2C [Example I-282, 4-[7,7-difluoro-5-methyl-6-oxo-9-(3-phenyl-propyl)-6,7,8,9-tetrahydro-5H-pyrimido[4,5-b][1,4]diazepin-2-ylamino]-3-methoxy-N-(1-methyl-piperidin-4-yl)-benzamide] |  | 0.001 to 0.05 |
| Cc1cc(C(=O)NC2CCNCC2)ccc1Nc1ncc2c(n1)N(C1CCCC1)CC(F)(F)C(=O)N2C [Example I-192, 4-(9-cyclopentyl-7,7-difluoro-5-methyl-6-oxo-6,7,8,9-tetrahydro-5H-pyrimido[4,5-b][1,4]diazepin-2-ylamino)-3-methyl-N-piperidin-4-yl-benzamide] |  | 0.001 to 0.05 |
| CN1C(=O)C(F)(F)CN(C2CCCC2)c2nc(Nc3ccc(C(N)=O)cc3C(F)(F)F)ncc21 [Example I-213, 4-(9-cyclopentyl-7,7-difluoro-5-methyl-6-oxo-6,7,8,9-tetrahydro-5H-pyrimido[4,5-b][1,4]diazepin-2-ylamino)-3-trifluoromethyl-benzamide] |  | 0.051 to 0.5 |
| COc1cc(C(=O)NCc2ccccn2)ccc1Nc1ncc2c(n1)N(C1CCCC1)CC(F)(F)C(=O)N2C [Example I-109, 4-(9-cyclopentyl-7,7-difluoro-5-methyl-6-oxo-6,7,8,9-tetrahydro-5H-pyrimido[4,5-b][1,4]diazepin-2-ylamino)-3-methoxy-N-pyridin-2-ylmethyl-benzamide] | 0.001 to 0.05 |  |
| COc1cc(C(=O)NN2CCCCC2)ccc1Nc1ncc2c(n1)N(C1CCCC1)CC(F)(F)C(=O)N2C [Example I-115, 4-(9-cyclopentyl-7,7-difluoro-5-methyl-6-oxo-6,7,8,9-tetrahydro-5H-pyrimido[4,5-b][1,4]diazepin-2-ylamino)-3-methoxy-N-piperidin-1-yl-benzamide] | 0.001 to 0.05 |  |
| COc1cc(C(=O)NCCN2CCCC2)ccc1Nc1ncc2c(n1)N(C1CCCC1)CC(F)(F)C(=O)N2C [Example I-45, 4-(9-cyclopentyl-7,7-difluoro-5-methyl-6-oxo-6,7,8,9-tetrahydro-5H-pyrimido[4,5-b][1,4]diazepin-2-ylamino)-3-methoxy-N-(2-pyrrolidin-1-yl-ethyl)-benzamide] | 0.001 to 0.05 |  |
| CCCN1C(=O)C(F)(F)CN(C2CCCC2)c2nc(Nc3ccc(C(=O)NCCCN(C)C)cc3)ncc21 [Example I-148, 4-(9-cyclopentyl-7,7-difluoro-6-oxo-5-propyl-6,7,8,9-tetrahydro-5H-pyrimido[4,5-b][1,4]diazepin-2-yl-amino)-N-(3-dimethyl-amino-propyl)-benzamide] | 0.5 to 5 |  |
